The target of series [1] is T1, recombinant GST-MSUT2 binding to synthetic poly(A) RNA (Homo sapiens, UniProt Q6PJT7).
T1 construct: fused on or other part: GST at the N-terminus (pGEX6P-1 vector)
T1 sequence (Q6PJT7 595-719 limits assumed): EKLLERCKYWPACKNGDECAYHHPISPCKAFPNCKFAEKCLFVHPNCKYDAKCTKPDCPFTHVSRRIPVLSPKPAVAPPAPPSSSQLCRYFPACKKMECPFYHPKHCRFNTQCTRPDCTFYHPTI
Kind of series: MSUT2/poly(A) RNA AlphaScreen assay. As to conditions: dose validated hits of pilot AlphaScreen. On the procedure: To identify small-molecule inhibitors of the MSUT2 protein/poly(A) RNA interaction, a high-throughput AlphaScreen assay optimized for detecting recombinant GST-MSUT2 binding to synthetic poly(A) RNA. The MSUT2 AlphaScreen assay has been well optimized during its development for 384-well screening (z-score=0.96). Two high throughput AlphaScreens of 53,400 distinct small molecules have been completed. A multi-point dose analysis pilot screen of the Spectrum Collection was performed. […] Both the pilot screen and the screening approaches disclosed herein use the Quellos High-Throughput Screening Core at the University of Washington (UW).
Assay of inhibitor dose dependence. Hits identified in the pilot screen were validated by retesting resynthesized compounds over a wide concentration range. […] These hits will be validated by conducting a 14-point dose-response analysis with a drug concentration range from 100 μM down to 1.4 nM; the MSUT2/poly(A) RNA AlphaScreen Assay will be used to produce a readout. From this dose-response analysis, IC50 values will be calculated for dose-responsive hits. For the full scale screen 64 primary hits were identified and will be subject to dose validation as described for pilot screen compounds (and Ebselen, shown in FIG. 20).
The steps and set up for performing the ALPHA assay for MSUT2 binding to polyA are as follows: • 1. Dilutions are in assay buffer (1×PAMA final concentration). • 2. Scale is for 96 well assay in PE […] ½ area plate (total volume/well is 50 μL). • 3. Assays set up in low light conditions • 4. Add 20 μL of diluted donor bead (10 ug/mL) to well bringing well volume to 20 μL • 5. Add 10 μL diluted biotin RNA (15 nM)) bringing well volume to 30 μL • 6. Add 10 μL diluted GST-MSUT2 Protein (125 nM)) bringing well volume to 40 μL • 7. Incubate at room temp for 30 minutes in the dark • 8. Add 10 μl of diluted Acceptor bead (2.5 μg/mL) to well bringing well volume to 50 • 9. Incubate at room temp for 60 minutes in the dark • 10. Read Plate using standard AlphaAssay settings on Perkin Elmer EnSpire® Alpha microplate reader

Series [2] concerns wild type or MSUT2 KO mice. Kind of series: Kainic acid induced gliosis in mice. The following applies: hippocampi 3 days after single 25 mg/kg i.p. It is filed as in vivo, mouse. How it is done: Shown are the hippocampi of wild type or MSUT2 KO mice 3 days after KA treatment (a single dose of 25 mg/kg KA administered i.p.). […] Scale bar=500 μm.
Series [3] addresses biotinylated poly(A)15 RNA. Kind of series: Surface plasmon resonance (Biacore) binding to poly(A) RNA. The following applies: poly(A)15, five protein concentrations 1-0.6 μM. On the procedure:
Surface plasmon pesonance. SPR experiments were conducted on a Biacore T200 using the Biotin Capture Kit Series S following the manufacturer's instructions (GE). Biotin capture reagent was applied to the sensor chip at a flow rate of 2 μl/minute for 300 seconds. 1 nM biotinylated RNA (BiotinTEG-AAAAAAAAAAAAAAA; SEQ ID NO: 25) was captured at a flow rate of 10 μl/minute for 180 seconds. Samples were flowed across the sensor chip at 50 μl/minute for 120 seconds and the chip was regenerated for 120 seconds at a flow rate of 10 μl/minute. KD values for binding and disassociation were calculated from the binding kinetics of each protein at five concentrations using the Biacore T200 Software v3.1 application package (GE; 1, 0.9, 0.8, 0.7, 0.6 μM).

The results in this text go back to patent US11439658B2, “Compositions and methods for suppressing MSUT2” (United States Government As Represented By The Department …, priority 2018, dated 2022).

`O=S(=O)(O)c1cc(N=C=S)ccc1C=Cc1ccc(N=C=S)cc1S(=O)(=O)O` [4,4′-Diisothiocyano-stilbene-2,2′ sulfonic acid]: the IC50 in series [1] was 6800 nM. `C=C(C)[C@H]1CN[C@H](C(=O)O)[C@H]1CC(=O)O` [Kainic Acid]: the “gliotic response (astrocytosis, IHC for GFAP)” value in series [2] is “obvious and strong gliotic response”. Regarding `O=c1c2ccccc2[se]n1-c1ccccc1` [Ebselen], in series [1], the IC50 is 1600 nM. The same measure, in the same setting: the figure for `COc1cc2c(cc1OC)-c1cc3ccc(OC)c(OC)c3c[n+]1CC2` [Palmatine] is 1700 nM.

B1: PABPN1: recombinant polyadenylate-binding nuclear protein 1 (protein, UniProt Q86U42 2-306, looked up)
Polyadenylate-binding protein …: AAAAAAAAAAGAAGGRGSGPGRRRHLVPGAGGEAGEGAPGGAGDYGNGLESEELEPEELLLEPEPEPEPEEEPPRPRAPPGAPGPGPGSGAPGSQEEEEEPGLVEGDPGDGAIEDPELEAIKARVREMEEEAEKLKELQNEVEKQMNMSPPPGNAGPVIMSIEEKMEADARSIYVGNVDYGATAEELEAHFHGCGSVNRVTILCDKFSGHPKGFAYIEFSDKESVRTSLALDESLFRGRQIKVIPKRTNRPGISTTDRGFPRARYRARTTNYNSSRSRFYSGFNSRPRGRVYRGRARATSWYSPY
As to B1, in series [3], the Kd was found to be 237 ± 21 nM.

B2: MSUT2: recombinant mammalian suppressor of tauopathy 2, poly(A) RNA binding protein (protein)
chain: MEIGTEISRKIRSAIKGKLQELGAYVDEELPDYIMVMVANKKSQDQMTEDLSLFLGNNTIRFTVWLHGVLDKLRSVTTEPSSLKSSDTNIFDSNVPSNKSNFSRGDERRHEAAVPPLAIPSARPEKRDSRVSTSSQESKTTNVRQTYDDGAATRLMSTVKPLREPAPSEDVIDIKPEPDDLIDEDLNFVQENPLSQKKPTVTLTYGSSRPSIEIYRPPASRNADSGVHLNRLQFQQQQNSIHAAKQLDMQSSWVYETGRLCEPEVLNSLEETYSPFFRNNSEKMSMEDENFRKRKLPVVSSVVKVKKFNHDGEEEEEDDDYGSRTGSISSSVSVPAKPERRPSLPPSKQANKNLILKAISEAQESVTKTTNYSTVPQKQTLPVAPRTRTSQEELLAEVVQGQSRTPRISPPIKEEETKGDSVEKNQGTQQRQLLSRLQIDPVMAETLQMSQDYYDMESMVHADTRSFILKKPKLSEEVVVAPNQESGMKTADSLRVLSGHLMQTRDLVQPDKPASPKFIVTLDGVPSPPGYMSDQEEDMCFEGMKPVNQTAASNKGLRGLLHPQQLHLLSRQLEDPNGSFSNAEMSELSVAQKPEKLLERCKYWPACKNGDECAYHHPISPCKAFPNCKFAEKCLFVHPNCKYDAKCTKPDCPFTHVSRRIPVLSPKPAVAPPAPPSSSQLCRYFPACKKMECPFYHPKHCRFNTQCTRPDCTFYHPTINVPPRHALKWIRPQTSE
Regarding B2, the affinity in series [3], expressed as Kd, was 60 ± 15 nM.
